In ChEMBL document CHEMBL1140272, “Discovery of potent and use-dependent sodium channel blockers for treatment of chronic pain” (Bioorg Med Chem Lett, 2005):

Experiments:
[1] = biological target: T1, Sodium channel protein type 9 subunit alpha (Homo sapiens, UniProt Q15858); assay: In vitro inhibitory concentration against Na v1.7 channel expressed in HEK293 cells using Voltage/Ion Probe Reader (VIPR) assay; format: cell-based
Target sequence in this assay (Q15858 whole entry): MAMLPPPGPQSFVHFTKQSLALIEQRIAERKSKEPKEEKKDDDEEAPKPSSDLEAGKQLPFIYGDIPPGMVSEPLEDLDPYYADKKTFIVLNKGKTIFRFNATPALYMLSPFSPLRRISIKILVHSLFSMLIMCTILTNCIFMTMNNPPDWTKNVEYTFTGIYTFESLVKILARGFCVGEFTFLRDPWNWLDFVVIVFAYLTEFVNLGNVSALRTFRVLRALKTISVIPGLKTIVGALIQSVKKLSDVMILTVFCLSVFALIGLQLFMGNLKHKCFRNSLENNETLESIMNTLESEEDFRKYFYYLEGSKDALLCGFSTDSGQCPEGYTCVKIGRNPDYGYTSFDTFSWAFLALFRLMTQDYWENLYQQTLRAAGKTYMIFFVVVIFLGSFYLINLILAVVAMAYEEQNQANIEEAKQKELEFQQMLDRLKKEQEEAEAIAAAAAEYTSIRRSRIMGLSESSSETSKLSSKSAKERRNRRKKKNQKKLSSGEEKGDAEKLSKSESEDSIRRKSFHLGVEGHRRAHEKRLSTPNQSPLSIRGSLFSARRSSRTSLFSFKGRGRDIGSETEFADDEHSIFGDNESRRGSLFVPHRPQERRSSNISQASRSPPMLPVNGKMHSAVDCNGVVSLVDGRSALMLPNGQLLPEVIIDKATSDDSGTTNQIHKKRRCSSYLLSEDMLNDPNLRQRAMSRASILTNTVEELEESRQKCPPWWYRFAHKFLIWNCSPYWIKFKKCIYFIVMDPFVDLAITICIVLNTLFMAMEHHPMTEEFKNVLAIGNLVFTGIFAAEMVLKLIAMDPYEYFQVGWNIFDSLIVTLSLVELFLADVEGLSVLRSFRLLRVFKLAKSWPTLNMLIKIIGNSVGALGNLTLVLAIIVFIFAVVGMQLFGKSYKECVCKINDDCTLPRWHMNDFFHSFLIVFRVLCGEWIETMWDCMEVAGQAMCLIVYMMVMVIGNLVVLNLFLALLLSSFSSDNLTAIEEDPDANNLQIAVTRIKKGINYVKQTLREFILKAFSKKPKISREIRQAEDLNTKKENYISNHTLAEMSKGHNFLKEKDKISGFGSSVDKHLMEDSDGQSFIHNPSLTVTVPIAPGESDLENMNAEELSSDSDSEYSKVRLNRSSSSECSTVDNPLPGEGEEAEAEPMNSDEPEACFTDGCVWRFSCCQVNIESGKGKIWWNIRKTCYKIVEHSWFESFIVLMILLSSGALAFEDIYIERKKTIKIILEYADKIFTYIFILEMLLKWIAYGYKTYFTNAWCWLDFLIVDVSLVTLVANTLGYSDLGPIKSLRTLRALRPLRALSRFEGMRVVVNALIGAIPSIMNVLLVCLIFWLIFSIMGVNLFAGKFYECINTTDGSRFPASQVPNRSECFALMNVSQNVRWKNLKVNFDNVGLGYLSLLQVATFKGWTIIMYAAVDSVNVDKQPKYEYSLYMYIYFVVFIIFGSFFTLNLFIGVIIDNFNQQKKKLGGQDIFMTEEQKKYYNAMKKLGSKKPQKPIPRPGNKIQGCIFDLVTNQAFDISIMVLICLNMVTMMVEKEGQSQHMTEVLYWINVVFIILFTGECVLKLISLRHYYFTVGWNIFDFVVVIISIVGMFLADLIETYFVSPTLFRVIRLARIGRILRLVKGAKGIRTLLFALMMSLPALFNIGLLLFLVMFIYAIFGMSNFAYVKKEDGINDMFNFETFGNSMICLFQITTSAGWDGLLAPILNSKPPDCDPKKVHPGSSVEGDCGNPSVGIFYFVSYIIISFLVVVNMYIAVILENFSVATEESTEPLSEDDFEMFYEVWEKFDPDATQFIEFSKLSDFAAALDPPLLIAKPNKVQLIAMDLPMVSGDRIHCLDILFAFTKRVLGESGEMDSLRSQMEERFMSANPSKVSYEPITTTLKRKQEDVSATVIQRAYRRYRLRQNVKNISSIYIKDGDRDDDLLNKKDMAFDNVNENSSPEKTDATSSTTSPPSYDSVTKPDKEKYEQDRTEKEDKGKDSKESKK

hERG (KCNH2) = hERG (KCNH2) (Homo sapiens, UniProt Q12809); assay: Percent inhibition against displacement of 35[S] MK-499 binding to hERG channel expressed in HEK293 cells at a concentration of 10 uM; format: cell-based; settings: HEK293 cells that express hERG, probe [35S]MK-499
[2] = biological target: T2, Voltage-gated inwardly rectifying potassium channel KCNH2 (Homo sapiens, UniProt Q12809); assay: In vivo inhibitory concentration against displacement of 35[S] MK-499 binding to hERG channel expressed in HEK293 cells; format: organism-based
[3] = biological target: T1, Sodium channel protein type 9 subunit alpha; assay: In vivo inhibitory concentration against Na v1.7 channel expressed in HEK293 cells using Voltage/Ion Probe Reader (VIPR) assay; format: organism-based
Target sequence in this assay (Q15858 whole entry): as above

[4] = biological target: T1, Sodium channel protein type 9 subunit alpha; assay: In vitro inhibitory concentration against Na v1.7 channel electrophysiology in inactivated state expressed in HEK293 cells using Voltage/Ion Probe Reader (VIPR) assay; format: cell-based
Target sequence in this assay (Q15858 whole entry): as above

Rattus norvegicus = assay: Percent formalin paw response in rat at (10-40 min, 3 mg/kg, iv); format: functional
[5] = Bioavailability in rat; format: ADME, organism-based; settings: in vivo
[6] = Half-life in rat was determined; format: ADME; settings: in vivo
[7] = Clearance rate in rat was determined; format: ADME, organism-based; settings: plasma, read-out: Clp
[8] = biological target: T1, Sodium channel protein type 9 subunit alpha; settings: HEK293
Target sequence in this assay (Q15858 whole entry, looked up): as the sequence (Q15858 whole entry) above

[9] = biological target: T2, Voltage-gated inwardly rectifying potassium channel KCNH2
Description: In vitro inhibitory concentration against displacement of 35[S] MK-499 binding to hERG channel expressed in HEK293 cells

[10] = biological target: T1, Sodium channel protein type 9 subunit alpha; assay: In vitro inhibitory concentration against Na v1.7 channel electrophysiology in resting state expressed in HEK293 cells using Voltage/Ion Probe Reader (VIPR) assay; format: functional, cell-based
Target sequence in this assay (Q15858 whole entry, looked up): as the sequence (Q15858 whole entry) above

T2 sequence (Q12809 whole entry): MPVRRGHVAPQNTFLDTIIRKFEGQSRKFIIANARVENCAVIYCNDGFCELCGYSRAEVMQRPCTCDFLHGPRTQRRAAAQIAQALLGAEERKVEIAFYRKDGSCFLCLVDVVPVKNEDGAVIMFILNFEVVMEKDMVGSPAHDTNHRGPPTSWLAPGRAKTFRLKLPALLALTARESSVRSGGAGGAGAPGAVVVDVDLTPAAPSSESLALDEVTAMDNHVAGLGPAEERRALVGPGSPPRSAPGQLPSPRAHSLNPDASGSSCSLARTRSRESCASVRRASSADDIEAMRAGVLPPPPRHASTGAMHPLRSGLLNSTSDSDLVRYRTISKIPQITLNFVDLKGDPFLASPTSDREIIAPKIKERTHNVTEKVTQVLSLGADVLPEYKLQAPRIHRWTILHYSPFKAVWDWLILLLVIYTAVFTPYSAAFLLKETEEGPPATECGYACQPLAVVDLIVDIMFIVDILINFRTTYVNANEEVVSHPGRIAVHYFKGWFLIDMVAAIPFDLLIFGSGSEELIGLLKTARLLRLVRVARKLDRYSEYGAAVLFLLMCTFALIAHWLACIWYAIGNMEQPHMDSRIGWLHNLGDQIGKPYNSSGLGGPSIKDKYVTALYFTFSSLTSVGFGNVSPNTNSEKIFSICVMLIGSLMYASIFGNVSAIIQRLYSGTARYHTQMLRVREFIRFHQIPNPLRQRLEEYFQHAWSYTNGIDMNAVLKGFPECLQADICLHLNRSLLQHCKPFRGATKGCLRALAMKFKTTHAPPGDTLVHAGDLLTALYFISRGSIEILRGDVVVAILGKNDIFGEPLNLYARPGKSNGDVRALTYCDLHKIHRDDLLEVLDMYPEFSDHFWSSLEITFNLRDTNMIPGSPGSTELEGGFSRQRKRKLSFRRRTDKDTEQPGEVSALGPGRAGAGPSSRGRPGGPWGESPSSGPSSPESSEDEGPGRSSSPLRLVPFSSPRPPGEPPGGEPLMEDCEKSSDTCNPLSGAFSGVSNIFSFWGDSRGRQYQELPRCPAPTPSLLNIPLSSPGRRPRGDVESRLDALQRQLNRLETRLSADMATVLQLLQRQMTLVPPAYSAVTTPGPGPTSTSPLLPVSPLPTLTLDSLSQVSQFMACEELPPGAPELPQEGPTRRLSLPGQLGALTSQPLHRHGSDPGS
Sequence of hERG (KCNH2) (Q12809 whole entry): as above

SMILES	IC50 [1]	inhibition at 10 µM (hERG (KCNH2))	other results
CC(C)(C)Oc1cccc(C(=O)N2CCCC2)c1OCc1csc(-c2ccc(Cl)cc2)n1	22 µM	–	–
COc1cccc(C(=O)N2CCCC2)c1OC(C)c1ccccc1 (stereo not given)	> 30 µM	–	–
O=C(c1ccccc1OCc1csc(-c2ccc(Cl)cc2)n1)N1CCCCCCC1	29 µM	90%	–
O=C(c1ccccc1OCc1csc(-c2ccc(Cl)cc2)n1)N1CCCCCC1	40 µM	90%	–
COc1cccc(C(=O)N2CCCCC2)c1OCc1csc(-c2ccc(Cl)cc2)n1	3.7 µM	63%	–
O=C(c1ccccc1OCc1csc(-c2ccc(Cl)cc2)n1)N1CCCC1	1 µM	63%	IC50 [2]: 9.8 µM; IC50 [3]: 1 µM; Ki [4]: 0.16 µM; Activity (Rattus norvegicus): 65%; bioavailability [5]: 17%; half-life [6]: 26.4 min; clearance [7]: 627 mL/min/kg; KR [8]: 6.7 µM
COc1cccc(CN2CCCCCCC2)c1OCc1csc(-c2ccc(Cl)cc2)n1	3.8 µM	–	–
COc1cccc(C(=O)N2CCCC2)c1OC(C)c1csc(-c2ccc(Cl)cc2)n1 (stereo not given)	2.2 µM	–	–
COc1cccc(C(=O)N2CCCCCCC2)c1OCc1csc(-c2ccc(Cl)cc2)n1	19.4 µM	88%	–
CCOc1cccc(C(=O)N2CCCC2)c1OCc1csc(-c2ccc(Cl)cc2)n1	6.6 µM	–	–
Clc1ccc(-c2nc(COc3ccccc3CN3CCCCCCC3)cs2)cc1	2.9 µM	–	–
COc1cccc(C(=O)N2CCCC2)c1OCc1ccc(-c2cccs2)s1	0.55 µM	–	–
COc1cccc(C(=O)N2CCCCCC2)c1OCc1csc(-c2ccc(Cl)cc2)n1	6.5 µM	85%	–
COc1cccc(CN2CCCCCCC2)c1OCc1csc(-c2ccccc2)n1	4 µM	–	IC50 [9]: 0.18 µM
COc1cccc(C(=O)N2CCCC2)c1OCc1nc(-c2ccc(Cl)cc2)no1	0.86 µM	–	–
COc1cccc(C(=O)N2CCCC2)c1OCCCc1ccccc1	21 µM	–	–
O=C(c1ccccc1OCc1csc(-c2ccc(Cl)cc2)n1)N1CCCCC1	7.4 µM	89%	–
COc1cccc(C(=O)N2CCCC2)c1OCc1ccc(C(C)(C)C)cc1	90 µM	–	–
CC(C)Oc1cccc(C(=O)N2CCCC2)c1OCc1csc(-c2ccc(Cl)cc2)n1	7.5 µM	–	–
COc1cccc(C(=O)N2CCCC2)c1OCCc1ccccc1	> 30 µM	–	–
O=C(c1cccc(O)c1OCc1csc(-c2ccc(Cl)cc2)n1)N1CCCC1	> 30 µM	–	–
COc1cccc(C(=O)N2CCCC2)c1OCc1csc(-c2ccc(Cl)cc2)n1	1.3 µM	50%	Ki [4]: 0.14 µM; IC50 ([1]; hek293): 1.3 µM; KR [10]: 10 µM; Activity (Rattus norvegicus): 68%; bioavailability [5]: 9.4%; half-life [6]: 28.8 min; clearance [7]: 101 mL/min/kg; IC50 [9]: 7.7 µM
COc1cccc(C(=O)N2CCCC2)c1OCc1ccc(-c2ccccc2)cc1	4 µM	–	–
Cc1cccc(C(=O)N2CCCC2)c1OCc1csc(-c2ccc(Cl)cc2)n1	0.55 µM	–	–
O=C(c1cccc(Cl)c1OCc1csc(-c2ccc(Cl)cc2)n1)N1CCCC1	0.73 µM	–	–
